Experimental data from patent US8486897B2, “C-aryl glycoside compounds for the treatment of diabetes and obesity” (TFCHEM, priority 2008, dated 2013).

Columns and labels:
Human SGLT2 = biological target: T1, Human SGLT2 (Homo sapiens, UniProt P31639); assay: Cell-based assay for inhibition of uptake of 14C-methyl-α-D-glucopyranoside (14C-AMG) in CHO-K1 cells stably expressing human SGLT2; conditions: 14C-AMG uptake, 1 hour at 37° C.; for inhibition at 10 µM: compound at 10 μM; for inhibition at 100 µM: compound at 100 μM
T1 construct: pCMV6 vector containing the full length human SGLT2 gene
T1 sequence (P31639 1-672): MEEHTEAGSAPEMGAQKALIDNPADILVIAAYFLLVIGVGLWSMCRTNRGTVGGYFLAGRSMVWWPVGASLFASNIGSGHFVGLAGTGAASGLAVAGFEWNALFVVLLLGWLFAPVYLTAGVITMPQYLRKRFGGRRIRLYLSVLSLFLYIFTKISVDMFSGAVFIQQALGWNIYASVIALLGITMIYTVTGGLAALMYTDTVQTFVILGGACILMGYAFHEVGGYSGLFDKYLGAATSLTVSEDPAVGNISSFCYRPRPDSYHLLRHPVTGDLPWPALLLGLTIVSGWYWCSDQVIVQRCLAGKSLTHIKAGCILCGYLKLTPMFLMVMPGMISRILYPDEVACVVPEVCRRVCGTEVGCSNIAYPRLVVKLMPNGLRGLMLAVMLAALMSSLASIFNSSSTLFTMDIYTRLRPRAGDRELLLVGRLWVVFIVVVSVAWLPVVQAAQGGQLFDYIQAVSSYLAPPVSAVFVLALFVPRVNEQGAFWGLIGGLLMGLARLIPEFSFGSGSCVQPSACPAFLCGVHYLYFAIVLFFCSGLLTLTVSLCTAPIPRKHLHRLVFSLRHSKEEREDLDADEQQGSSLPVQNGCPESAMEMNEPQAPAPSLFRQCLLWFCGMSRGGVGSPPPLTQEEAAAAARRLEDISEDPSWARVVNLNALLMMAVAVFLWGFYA
From the text: The compounds of the invention have been tested for their ability to inhibit Human Sodium Glucose Co-Transporter 2 (Human SGLT2) according to the following protocol:
(§1) 1. Preparation of Human SGLT1 and Human SGLT2 Expression Vectors:
• Human SGLT1 (Genbank M24847) cDNA was cloned from a pCMV6 vector containing the full length human SGLT1 gene (Origene NM 000343, Cat. #: RC221312) and Human SGLT2 (Genbank M95549) cDNA was cloned from a pCMV6 vector containing the full length human SGLT2 gene (Origene NM_003041, Cat. #: RC224822). The full cDNAs were subcloned independently into mammalian cell expression plasmid pSPI1 and sequenced to verify the integrity of the construct. 2. Preparation of CHO-K1 Cells Stably Expressing Human SGLT1 and Human SGLT2: • Transfection of CHO-K^1 cells was performed using 2.5 ug of pSPI1-SGLT1 or pSPI1-SGLT2 plasmid with about 6 ul of Lipofectamin 2000 (Invitrogen, Cat. #: 11668-019) in about 1.5×10^5 CHO-K1 cells using 12-well cell culture plate (Becton Dickinson, Cat. #: 353003) in the presence of DMEM medium (Dulbecco's Modified Eagle Medium) (Gibco, Cat. #: 11885-092) containing 10% FBS (Sigma, Cat. #: F1051-500mL). Transfectants were then selected in the presence of the antibiotic G418 (GIBCO, Cat. #: 11811-031) at final concentration of 750 ug/ml. Individual clones for both SGLT1 and SGLT2 were then characterized using the functional cell-based assay described below. 3. Cell-Based Assay for Inhibition of Uptake of methyl-α-D-glucopyranoside by Human SGLT1 and Human SGLT2: • Selected cell lines stably expressing human SGLT1 or human SGLT2 were then used for functional analysis of sodium dependent glucose uptake. Sodium-dependent D-glucose transport was determined by measuring the uptake of 14C-methyl-α-D-glucopyranoside (14C-AMG) with a specific activity of 250-350mCi (9.25-13.0 GBq)/mmol (PerkinElmer, Cat. #: NEC 659250UC). The assay buffer used to assess sodium-dependent D-glucose transport was Krebs-Ringer-Henseleit (KRH) solution containing 4.7 mM KCl, 1.2 mM MgCl2, 2.2 mM CaCl2, 10 mM Hepes pH 7.4 with Tris (Sigma). For sodium (Na^+) conditions the Assay Buffer containing 120 mM NaCl (Na^+) was used to assess sodium-dependent D-glucose transport (KRH-Na^+). For sodium free conditions, KRH solution containing 120 mM N-methyl-glucamine (NMG) instead of NaCl (Na^+) was used to assess sodium-independent D-glucose transport (KRH-NMG). All buffer chemicals were purchased from Sigma. • In brief, the cells were plated at a density of 40,000 cells per well in a 96-well plate in DMEM media and allowed to grow for 24 hours. Cells were subsequently washed twice (2×100 μL) with KRH buffer cells containing NMG. […] Scintillation cocktail (1004) was added and the 14C-AMG radioisotope counted in a MicroBeta Trilux (PerkinElmer).

Human SGLT1 = biological target: T2, Human SGLT1 (Homo sapiens, UniProt P13866); assay: Cell-based assay for inhibition of uptake of 14C-methyl-α-D-glucopyranoside (14C-AMG) in CHO-K1 cells stably expressing human SGLT1; conditions: compound at 100 μM, 14C-AMG uptake, 1 hour at 37° C.
T2 construct: pCMV6 vector containing the full length human SGLT1 gene
T2 sequence (P13866 1-664): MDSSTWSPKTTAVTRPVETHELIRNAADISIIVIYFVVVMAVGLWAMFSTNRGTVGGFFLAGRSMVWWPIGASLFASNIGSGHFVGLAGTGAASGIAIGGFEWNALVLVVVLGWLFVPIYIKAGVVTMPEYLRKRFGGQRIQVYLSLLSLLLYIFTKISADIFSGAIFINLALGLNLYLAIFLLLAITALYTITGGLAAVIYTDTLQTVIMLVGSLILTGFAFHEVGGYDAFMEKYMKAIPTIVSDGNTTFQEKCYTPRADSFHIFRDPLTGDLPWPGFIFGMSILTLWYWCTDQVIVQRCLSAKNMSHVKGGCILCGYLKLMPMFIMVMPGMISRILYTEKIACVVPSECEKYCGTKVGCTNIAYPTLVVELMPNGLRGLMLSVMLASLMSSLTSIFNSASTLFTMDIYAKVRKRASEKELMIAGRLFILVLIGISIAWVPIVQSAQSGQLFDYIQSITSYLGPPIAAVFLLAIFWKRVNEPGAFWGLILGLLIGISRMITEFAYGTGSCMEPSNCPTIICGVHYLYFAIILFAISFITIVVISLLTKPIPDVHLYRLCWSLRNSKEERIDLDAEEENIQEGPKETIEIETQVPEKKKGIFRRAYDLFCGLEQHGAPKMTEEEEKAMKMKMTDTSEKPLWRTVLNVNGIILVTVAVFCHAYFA
From the text: as §1
• Human SGLT1 (Genbank M24847) cDNA was cloned from a pCMV6 vector containing the full length human SGLT1 gene (Origene NM 000343, Cat. #: RC221312) and Human SGLT2 (Genbank M95549) cDNA was cloned from a pCMV6 vector containing the full length human SGLT2 gene (Origene NM_003041, Cat. #: RC224822). The full cDNAs were subcloned independently into mammalian cell expression plasmid pSPI1 and sequenced to verify the integrity of the construct. 2. Preparation of CHO-K1 Cells Stably Expressing Human SGLT1 and Human SGLT2: • Transfection of CHO-K^1 cells was performed using 2.5 ug of pSPI1-SGLT1 or pSPI1-SGLT2 plasmid with about 6 ul of Lipofectamin 2000 (Invitrogen, Cat. #: 11668-019) in about 1.5×10^5 CHO-K1 cells using 12-well cell culture plate (Becton Dickinson, Cat. #: 353003) in the presence of DMEM medium (Dulbecco's Modified Eagle Medium) (Gibco, Cat. #: 11885-092) containing 10% FBS (Sigma, Cat. #: F1051-500mL). […] Sodium-dependent D-glucose transport was determined by measuring the uptake of 14C-methyl-α-D-glucopyranoside (14C-AMG) with a specific activity of 250-350mCi (9.25-13.0 GBq)/mmol (PerkinElmer, Cat. #: NEC 659250UC). […] Scintillation cocktail (1004) was added and the 14C-AMG radioisotope counted in a MicroBeta Trilux (PerkinElmer).

SMILES | inhibition at 10 µM (Human SGLT2) [%] | inhibition at 100 µM (Human SGLT2) [%] | inhibition at 100 µM (Human SGLT1) [%]
CCc1ccc(Cc2ccccc2C(F)(F)[C@@H]2O[C@H](CO)[C@@H](O)[C@H](O)[C@H]2O)cc1 [Compound 104] | 40 | 56 | 48
OC[C@H]1O[C@@H](C(F)(F)c2ccccc2)[C@H](O)[C@@H](O)[C@@H]1O [Compound 100] | 30 | 79 | 46
